Results from patent publication US20210186982A1, “METHODS AND COMPOSITIONS FOR TREATING MELANOMA” (UNIVERSITE NICE SOPHIA ANTIPOLIS, priority 2017, published 2021).

Tests used:
[1] = Annexin-V-FITC/7-AAD flow cytometry, cell viability; format: cell-based; details: human, A375 cells; solvent 87%
Description: Cell death was evaluated by flow cytometry following staining with Annexin-V-FITC and 7-AAD (eBiosciences) as previously described 24.

[2] = system: melanoma cell cultures; test: Cytotoxicity of b-AP15 in presence of NAC or pan-caspase inhibitor; format: cell-based, human; details: co-incubation with b-AP15
[3] = target: T1, USP14 (Homo sapiens, UniProt P54578); test: DUB trap assay (HA-Ub-VS probe, anti-USP14 immunoblot); format: cell-based; details: A375 melanoma cells
T1 construct: endogenous in cells; host or cells: A375 (also 1205Lu, 501Mel, SKMel28, 451Lu) melanoma cells; cell lysates
T1 sequence (P54578 whole entry): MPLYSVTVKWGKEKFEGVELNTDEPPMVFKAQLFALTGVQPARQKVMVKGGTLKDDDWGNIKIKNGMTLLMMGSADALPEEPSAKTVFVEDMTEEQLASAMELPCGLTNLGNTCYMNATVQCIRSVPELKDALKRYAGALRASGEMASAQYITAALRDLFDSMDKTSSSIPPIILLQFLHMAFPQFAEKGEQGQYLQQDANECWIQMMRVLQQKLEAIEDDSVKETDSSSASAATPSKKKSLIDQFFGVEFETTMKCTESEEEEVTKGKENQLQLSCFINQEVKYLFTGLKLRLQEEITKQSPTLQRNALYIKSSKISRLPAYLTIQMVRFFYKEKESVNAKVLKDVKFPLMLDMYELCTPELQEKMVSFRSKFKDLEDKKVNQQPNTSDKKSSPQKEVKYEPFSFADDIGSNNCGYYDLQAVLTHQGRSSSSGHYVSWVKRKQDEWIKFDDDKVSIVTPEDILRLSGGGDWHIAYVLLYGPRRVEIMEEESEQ
Description: (§1) Cells were harvested, washed with PBS and pellets were dried then freezed (−80° C.) and subsequently lysed in ice-cold buffer containing 50 mM Tris (pH 7.4), 5 mM MgCl2, 250 mM sucrose, 1 mM DTT, 2 mM ATP, and 1 mM PMSF and mild sonication. Lysates were cleared by centrifugation, and 20 μg of protein extracts were incubated for 25 min at 37° C. with 2 μM HA-Ub-VS (Boston Biochem, Cambridge, Mass.). After boiling in reducing sample buffer, labelled cell lysates were subjected to immunoblot analysis as described above using the indicated antibodies.

[4] = target: T2, UCHL5 (Homo sapiens, UniProt Q9Y5K5); test: DUB trap assay (HA-Ub-VS probe, anti-UCHL5 immunoblot); format: cell-based
T2 construct: 20 μg of protein extracts were incubated for 25 min at 37° C. with 2 μM HA-Ub-VS; endogenous in cells; host or cells: A375 melanoma cells; cell lysates
T2 sequence (Q9Y5K5 whole entry): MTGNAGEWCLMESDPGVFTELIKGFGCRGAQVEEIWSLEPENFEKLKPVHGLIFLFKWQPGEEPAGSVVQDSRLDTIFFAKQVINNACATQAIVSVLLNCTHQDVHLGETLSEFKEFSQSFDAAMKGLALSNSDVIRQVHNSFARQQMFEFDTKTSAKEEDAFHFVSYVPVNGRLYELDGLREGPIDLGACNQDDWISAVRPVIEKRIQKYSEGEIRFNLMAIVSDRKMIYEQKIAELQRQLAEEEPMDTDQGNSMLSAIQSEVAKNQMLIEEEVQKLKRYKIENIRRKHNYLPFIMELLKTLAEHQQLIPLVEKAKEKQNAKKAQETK
Description: as §1

[5] = system: A375 and Me1501 cells; test: Cytotoxicity, cytotox green reagent (IncuCyte); format: cell-based, human; details: 72 h; compared with b-AP15
Description: FIG. 8. USP14 inhibition induces growth inhibition and cytotoxicity on melanoma cell lines. (A) Growth curve of A375 treated with 2 μM b-AP15, 2 μM VLX1570 or […] bortezomib (BTZ). Data were acquired in triplicate during 3 days using an IncuCyte Zoom. (B) and (C) Cytotoxic effects of USP14 inhibition on melanoma cells. A375 and Me1501 cells were treated with the indicated doses of b-AP15 or VLX1570, and stained with cytotox green reagent (100 nM). Cytotoxicity was monitored in triplicate for 72 h with an IncuCyte imaging system.

[6] = system: A375; test: MTS conversion assay, melanoma cell proliferation; format: cell-based, human; details: 24 h; increasing doses up to 10 μM
Description: Cell proliferation was measured by a MTS conversion assay using the CellTiter 96® Aqueous Non-Radioactive Cell Proliferation kit (Promega, Madison Wis.) according to the manufacturer instructions. Cells were seeded in 96-well plates (5×10^4 cells/well) and treated with different reagents for the indicated times and incubated at 37° C. with MTS reagent. The optical density of each sample at 490 nm was determined with a Multiskan FC plate reader (Thermo Fisher Scientific, Waltham, Mass. USA).

[7] = system: A375 cells; test: ROS production (CM-H2DCFDA, flow cytometry); format: cell-based, human; details: 5 mM NAC with 2 μM b-AP15
Description: ROS levels were measured using the redox-sensitive dye CM-H2DCFDA (Thermo Fischer Scientific). After treatment, cells were stained with 10 μM CM-H2DCFDA in PBS for 30 min at 37° C. Cells were washed with PBS and resuspended in PBS 5 mM EDTA/1% BSA. ROS production was analysed using a MACSQuant® Analyzer 10 cytometer (Miltenyi Biotech).

CN[C@@H]1C[C@H]2O[C@@](C)([C@@H]1OC)n1c3ccccc3c3c4c(c5c6ccccc6n2c5c31)C(=O)NC4 [staurosporine]
viability [1]: 56%

CC(C)[C@H](NC(=O)c1ccc2ccccc2n1)C(=O)N[C@@H](CC(=O)O)C(=O)COc1c(F)cccc1F [QVD-OPh]
effect on cytotoxicity of b-AP15 [2]: did not prevent the cytotoxic action of b-AP15

C=CC(=O)N1CC/C(=C\c2ccc(F)c([N+](=O)[O-])c2)C(=O)/C(=C/c2ccc(F)c([N+](=O)[O-])c2)C1 [VLX1570]
USP14 activity (USP14-Ub-HA) in A375 cells [3]: blocked USP14
UCHL5 activity (UCHL5-Ub-HA) in A375 cells [4]: not UCHL5
melanoma cell death [5]: induced to similar levels

N#Cc1nc2c(nc1C#N)-c1ccc(Cl)cc1C2=O [HBX41108]
cell proliferation of A375 cells (MTS) [6]: drastically decreased cell proliferation

CC(=O)N[C@@H](CS)C(=O)O [NAC, N-acetyl-L-cysteine]
effect on b-AP15-triggered burst of ROS [7]: inhibited
effect on cytotoxicity of b-AP15 [2]: blocked

CCC[C@H](NC(=O)/C(C#N)=C/c1cccc(Br)n1)c1ccccc1 [WP1130]
cell proliferation of A375 cells (MTS) [6]: drastically decreased cell proliferation
